We go through three molecules from PMC7321404, “Isolation of Isocoumarins and Flavonoids as α-Glucosidase Inhibitors from Agrimonia pilosa L” (Molecules, 2020).

Experiment [1] concerns the target T1, α-glucosidase (Saccharomyces cerevisiae, UniProt P53341). The experiment in a line: AGI kinetic analysis (Lineweaver–Burk plots). The experiment is classed as biochemical. On the procedure: Four isocoumarins 1–4 and four flavonoids 5–8 were identified from the APE fraction, and AGI kinetic analyses were performed. During the reaction, α-glucosidase (0.76 unit/mL in 100-mmol phosphate buffer [pH 6.9]) activity was inhibited by the compounds (I) in the presence of the substrate (4-mmol p-nitrophenyl-α-D-glucopyranoside in 100-mmol phosphate buffer [pH 6.9]). The inhibition modes (competitive, uncompetitive, non-competitive, or mixed) of isocoumarins 1–4 and flavonoids 5–8 were examined using nonlinear regression Michaelis–Menten enzyme kinetics. The Lineweaver–Burk plot methods were used to determine kinetic parameters at increasing substrate and compound concentrations, and the parameters were calculated using a nonlinear regression program (Sigma Plot; SPCC Inc., Chicago, IL, USA). The obtained results represent three independent experiments.

Experiment [2] has as its target T1, α-glucosidase. Particulars: has been reported; cited from earlier work.

Where two headings read alike, the source gives them in different places.

T1 sequence (P53341 whole entry): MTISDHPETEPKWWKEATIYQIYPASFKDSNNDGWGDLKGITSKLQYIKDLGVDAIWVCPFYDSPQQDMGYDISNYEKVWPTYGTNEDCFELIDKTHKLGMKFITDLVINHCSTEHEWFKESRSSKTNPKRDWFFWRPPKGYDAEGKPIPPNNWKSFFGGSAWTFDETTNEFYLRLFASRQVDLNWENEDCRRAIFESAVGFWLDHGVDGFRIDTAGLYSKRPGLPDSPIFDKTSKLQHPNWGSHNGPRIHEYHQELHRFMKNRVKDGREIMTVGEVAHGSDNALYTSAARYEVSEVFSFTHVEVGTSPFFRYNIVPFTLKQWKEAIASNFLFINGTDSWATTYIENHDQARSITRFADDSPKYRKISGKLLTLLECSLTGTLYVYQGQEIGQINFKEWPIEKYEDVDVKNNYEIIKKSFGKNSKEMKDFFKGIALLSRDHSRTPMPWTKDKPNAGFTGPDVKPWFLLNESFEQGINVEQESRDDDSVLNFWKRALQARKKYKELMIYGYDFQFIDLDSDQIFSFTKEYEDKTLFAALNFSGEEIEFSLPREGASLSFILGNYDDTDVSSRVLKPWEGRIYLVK

As for `COc1ccc(CCC2Cc3cc(O)cc(O)c3C(=O)O2)cc1` (stereo not drawn) [Compound 1, agrimonolide], the “Inhibition Mode” value at α-glucosidase [1] was “Non-competitive”. `O=C1OC(CCc2ccc(O)cc2)Cc2cc(O)cc(O)c21` (stereo not drawn) [Compound 3, desmethylagrimonolide]: the “Inhibition Mode” value on α-glucosidase [1] is “Non-competitive”. As for `O=c1c(O)c(-c2ccc(O)c(O)c2)oc2cc(O)cc(O)c12` [Compound 6, quercetin], the “Inhibition Mode” value at α-glucosidase [2] is reported as “competitive”.
